Results as given in US20210393520A1, “TREATMENT OF GRAM-NEGATIVE FOLLICULITIS OR AN INFLAMMATION THEREOF WITH BESIFLOXACIN” (VYOME THERAPEUTICS LIMITED, priority 2018, published 2021).
≈ marks a conversion by molar mass, not a printed value.

Columns and labels:
[1] = tested on: Bacillus megaterium M1-2.; assay: MIC against bacteria isolated from acne lesions, Table 2; format: cell-based; details: Priestia megaterium, M12., read-out: Minimum Inhibitory Concentration
Experimental: (§1) MIC of besifloxacin and other antibiotics molecules were determined by micro broth dilution method as per the Clinical and Laboratory Standards Institute (CLSI) guideline. MIC assay is the determinant of the inherent anti-microbial potency of a particular molecule. For preparing inoculum, bacterial strains were cultured in Brain Heart Infusion Agar (BHIA) at 37° C. for 24 hours. […] For bacterial inoculum, bacterial culture turbidity was adjusted to 0.1 OD at 600 nm in UV-Visual spectrophotometer (approximately 1.5×10^8 cells/ml) and further diluted (100 times with sterile BHI broth). Diluted bacterial suspension (100 μl) was added to each well except sterility control wells (column 12 of 96 well plate). Column 11 of 96 well plate was used as growth control and vehicle control. The plates were incubated at 37° C. for 24 h. The MIC of the test compounds were determined by observing the lowest concentration of test compound that prevented the visual bacterial growth.
(§2) Different skin resident bacteria were isolated from acne lesions of moderate to severe acne patients.

P. avidum S3-1 = assay: as above; format: cell-based; details: Cutibacterium avidum, S31; P. avidum S3-1, isolated from acne lesions; read-out: Minimum Inhibitory Concentration
Experimental: as §1, §2

[2] = tested on: Dermatobacter hominis S11-2; assay: as above; format: cell-based; details: S112; Dermatobacter hominis S11-2, isolated from acne lesions; read-out: Minimum Inhibitory Concentration
Experimental: as §1, §2

S. epidermidis S1-1 = assay: as above; format: cell-based; details: Staphylococcus epidermidis, S11; S. epidermidis S1-1, isolated from acne lesions; read-out: Minimum Inhibitory Concentration
Experimental: as §1, §2

Kocuria sp. S18-1 = assay: as above; format: cell-based; details: SP.S181; Kocuria sp. S18-1, isolated from acne lesions; read-out: Minimum Inhibitory Concentration
Experimental: as §1, §2

K. pneumoniae S6-1 = assay: as above; format: cell-based; details: Klebsiella pneumoniae, S61; K. pneumoniae S6-1, isolated from acne lesions; read-out: Minimum Inhibitory Concentration
Experimental: as §1, §2

[3] = tested on: Enterobacter aerogenes M2-1; assay: as above; format: cell-based; details: Klebsiella aerogenes, M21; Enterobacter aerogenes M2-1, isolated from acne lesions; read-out: Minimum Inhibitory Concentration
Experimental: as §1, §2

[4] = tested on: Staphylococcus haemolyticus M1-1; assay: as above; format: cell-based; details: M11; Staphylococcus haemolyticus M1-1, isolated from acne lesions; read-out: Minimum Inhibitory Concentration
Experimental: as §1, §2

Microbacterium sp. S20-2 = assay: as above; format: cell-based; details: Microbacterium sp. S20-2, isolated from acne lesions
Experimental: as §1, §2

P. acnes V3-1 = assay: as above; format: cell-based, Propionibacterium acnes; details: Cutibacterium acnes, V31; P. acnes V3-1, isolated from acne lesions; read-out: Minimum Inhibitory Concentration
Experimental: as §1, §2

Blastococcus sp. S21A-2 = format: cell-based; details: Blastococcus sp. S21A-2, isolated from acne lesions
Experimental: as §1, §2

## CN(C)[C@@H]1C(O)=C(C(N)=O)C(=O)[C@@]2(O)C(O)=C3C(=O)c4c(O)cccc4[C@@](C)(O)[C@H]3C[C@@H]12 [Tetracycline]
[1]
  MIC: 0.06 µg/mL (≈ 0.135 µM)
P. avidum S3-1
  MIC: 1 µg/mL (≈ 2.25 µM)
[2]
  MIC: > 4 µg/mL
S. epidermidis S1-1
  MIC: > 4 µg/mL
Kocuria sp. S18-1
  MIC: 1 µg/mL (≈ 2.25 µM)
K. pneumoniae S6-1
  MIC: > 4 µg/mL
[3]
  MIC: 2 µg/mL (≈ 4.5 µM)
[4]
  MIC: 0.25 µg/mL (≈ 0.563 µM)
Microbacterium sp. S20-2
  Minimum Inhibitory Concentration: 2 µg/mL
P. acnes V3-1
  MIC: 0.3 µg/mL (≈ 0.675 µM)
Blastococcus sp. S21A-2
  Minimum Inhibitory Concentration: 0.5 µg/mL
